Measured values as given in US6486326B2, “iso-CBI and iso-CI analogs of CC-1065 duocarmycins” (The Scripps Research Institute, priority 1997, dated 2002).
Where two headings read alike, the source gives them in different places.

Key:
[1] = system: w794 DNA (SV40 DNA segment, 144 bp); experiment: DNA alkylation selectivity and efficiency, thermally-induced strand cleavage of w794 DNA; assay type: biochemical
Procedure: FIG. 5 illustrates thermally-induced strand cleavage of w794 DNA (SV40 DNA segment, 144 bp, nucleotide nos. 138-5238); DNA-agent incubation for 24 hours at 25° C., removal of unbound agent and 30 minutes of thermolysis (100° C.), followed by denaturing 8% PAGE and autoradiography, lane 1, control DNA; lanes 2-5, Sanger G, C, A, and T sequencing reactions; lanes 6-7 (−)-iso-CBI-TMI (1×10^−3 and 1×10^−4 M); lanes 8-9, (+)-CBI-TMI (1×10^−5 and 1×10^−4 M); lanes 10-11, (+)-duocarmycin SA (1×10^−5 and 1×10^−6).
FIG. 7 illustrates thermally-induced strand cleavage of w794 DNA (SV40 DNA segment, 144 bp, nucleotide nos. 138-5238); DNA-agent incubation for 24 h at 25° C., removal of unbound agent and 30 min of thermolysis (100° C.), followed by denaturing 8% PAGE and autoradiography; lane 1, control DNA; lanes 2-5, Sanger G, C, A, and T sequencing reactions; lanes 6-8 (+)-duocarmycin SA (1×10^−4 to 1×10^−6 M); lanes9-11, seco-iso-CI-TMI (1×10^−3 to 1×10^−5 M).
DNA Alkylation Selectivity and Efficiency: The DNA alkylation properties of the agents were examined within w794 and w836 duplex DNA for which comparative results are available for related agents. (Boger, D. L., et al., J. Am. Chem. Soc. 1994, 116, 11335; Boger, D. L., et al., J. Am. Chem. Soc. 1994, 116, 6461; and Boger, D. L., et al., J. Am. Chem. Soc. 1995, 117, 11647) The alkylation site identification and the assessment of the relative selectivity among the available sites were obtained by thermally-induced strand cleavage of the singly 5′ end-labeled duplex DNA after exposure to the agents. Following treatment of the end-labeled duplex DNA with a range of agent concentrations and temperatures in the dark, the unbound agent was removed by EtOH precipitation of the DNA Redissolution of the DNA in aqueous buffer, thermolysis (100° C., 30 min) to induce strand cleavage at the sites of DNA alkylation, denaturing high-resolution polyacrylamide gel electrophoresis (PAGE) adjacent to Sanger dideoxynucleotide sequencing standards, and autoradiography led to identification of the DNA cleavage and alkylation sites. The full details of this procedure have been disclosed elsewhere. (Boger, D. L., et al., Tetrahedron 1991, 47, 2661.)
DNA Alkylation Studies: Selectivity and Efficiency: Eppendorf tubes containing singly ^32p 5′-end-labeled double-stranded DNA (9 μL) (Boger, D. L., et al., Tetrahedron 1991, 47, 2661.) in TE buffer (10 mM Tris, 1 mM EDTA, pH 7.5) were treated with the agents in DMSO (1 μL, at the specified concentrations). The solutions were mixed by vortexing and brief centrifugation and subsequently incubated at 4° C., 25° C. or 37° C. for 24-72 h. […]

calf thymus DNA = experiment: Calf thymus DNA alkylation, quantitation of adenine N3 adduct; assay type: biochemical; details: 4° C.
Procedure: This was addressed through a study of the alkylation of calf thymus DNA. Optimized conditions for the alkylation were established for (−)-44 on an analytical scale (100 μg of agent). For this purpose, the long-wavelength UV absorption of the agent and the adduct provided a useful quantitative measure of the adenine adduct, unreacted starting material and any side products (solvolysis or rearrangement), Table 3. Analytical HPLC analysis was used to confirm the identity of the products through correlation of retention times and UV spectral data with authentic materials. The preparative DNA alkylation reaction and subsequent isolation of (+)-66 was carried out under conditions determined to provide complete consumption of the agent in the presence of a large excess of DNA Thus, extraction (EtOAc) of the aqueous buffer solution containing calf thymus DNA following alkylation (4° C., 72 h, 150 bp) afforded no recovered (−)-44, and only a small amount (<5%) of the rearranged product 65. Conducting the reaction at 4° C. in the presence of a large excess of DNA precluded competitive solvolysis. Thermal treatment of the alkylated DNA in aqueous 10 mM sodium phosphate buffer (100° C., 30 min, pH 7.0) followed by EtOAc extraction provided 66 in 90-95% conversion, ≧95% purity (by HPLC). Repeating this thermal treatment provided little or no additional adduct. No trace of a competing guanine adduct could be detected. This high conversion to a single adduct established that 44 participates exclusively in the adenine N3 alkylation reaction under the conditions examined.

L1210 = experiment: In vitro cytotoxic activity; assay type: cell-based
[2] = pH 3; comparison agents 55-61; cited from earlier work
[3] = Solvolysis reactivity (UV, 50% CH3OH-aqueous buffer, pH 3); assay type: physicochemical; details: for k, solvolysis rate constant: pH 3, 25° C., CH3OH/aqueous buffer
Procedure: The solvolysis was followed spectrophotometrically by UV with the disappearance of the long-wavelength absorption band of the iso-CBI chromophore (397 nm), FIG. 3.
Solvolysis Reactivity: N-BOC-iso-CBI (31, 0.2 mg) was dissolved in CH3OH (1.5 mL) and mixed with pH 3 aqueous buffer (1.5 mL). The buffer contained 4:1:20 (v/v/v) 0.1 M citric acid, 0.2 M Na2HPO4, and H2O, respectively. The solvolysis solution was sealed and kept at 25° C. protected from light. The UV spectrum was measured at regular intervals every 1 h during the first 24 h, every 4 during the next 72 h, and every 12 h for an additional week. The decrease in the long wavelength absorption at 397 nm was monitored, FIG. 3. […] (FIG. 9).
Similarly, N—CO2Me-iso-CBI (33, 0.2 mg) was dissolved in CH3OH (1.5 mL) and mixed with pH 3 aqueous buffer (1.5 mL). The solvolysis solution was sealed and kept at 25° C. protected from light. The UV spectrum was measured at regular intervals every 1 h during the first 24 h, every 4 h during the next 72 h, and every 12 h for an additional week. The decrease in the long wavelength absorption at 395 nm was monitored, FIG. 3.
Similarly, 35 (0.2 mg) was dissolved in CH3OH (1.5 mL) and mixed with pH 3 aqueous buffer (1.5 mL). The solvolysis solution was sealed and kept at 25° C. protected from light. The UV spectrum was measured at regular intervals every 1 h during the first 12 h, every 2 h for the next 24 h, and every 4 h for an additional day. The decrease in the short wavelength absorption at 239 nm was monitored, FIG. 9.

[4] = cytotoxic activity, read-out: IC50
[5] = L1210, seco precursor, read-out: IC50, L1210

With COc1cc2cc(C(=O)N3CC4CC45C(=O)c4ccccc4C=C35)[nH]c2c(OC)c1OC (racemic) [compound 44, 2-[(5,6,7-Trimethoxyindol-2-yl)carbonyl]-1,2,9,9a-tetrahydrocyclopropa[c]benzo[f]indol-8-one] the “DNA alkylation sequence selectivity compared with (+)-duocarmycin SA” value [1] was “same sequence selectivity”, the “adenine adduct 66” value (calf thymus DNA; 72 h, 75 base-pair equiv, analytical scale, HPLC/UV) was 94% and the “adenine adduct 66” value (calf thymus DNA; 72 h, 150 base-pair equiv, analytical scale, HPLC/UV) was 95%. The “adenine adduct 66” value (calf thymus DNA; 72 h, 150 base-pair equiv, preparative scale, isolation and weight) was 92%, the “adenine adduct 66” value (calf thymus DNA; 120 h, 150 base-pair equiv, preparative scale, isolation and weight) was 95% and the “cytotoxic potency, 44 compared with 46” value (L1210) was “equipotent”.
NC(=O)N1CCc2c1ccc1[nH]c(C(=O)N3CCc4c3ccc3[nH]c(C(=O)N5CC6CC67C(=O)c6ccccc6C=C57)cc43)cc21 (racemic) [compound 54, 2-{[3-[N-(3-Carbamoyl-1,2-dihydro-3H-pyrrolo[3,2-e]indol-7-yl)carbonyl]-1,2-dihydro-3H-pyrrolo[3,2-e]indol-7-yl]carbonyl}-1,2,9,9a-tetrahydrocyclopropa[c]benzo[f]indol-1-one] showed an IC50 (L1210; [4]) of 0.05 nM.
In the case of COC(=O)c1cc2c([nH]1)C(=O)C=C1N(C(=O)OC(C)(C)C)CC3CC123 (centres unmarked) [compound 57], the “k, solvolysis rate constant” value [2] is given as 1.08e-06 s⁻¹.
For COC(=O)C1(C)NC2=C(C1=O)C13CC1CN(C(=O)OC(C)(C)C)C3=CC2=O (centres unmarked) [compound 56], the “k, solvolysis rate constant” value [2] is given as 1.75e-05 s⁻¹.
With “2-[((E)-3-(2-Methoxyphenyl)propenyl)carbonyl]-1,2,9,9a-tetrahydrocyclopropa[c]benzo[f]indol-1-one [compound 48]” the “cytotoxic potency, less potent than 44 and 46” value (L1210) was 40-50 ×.
In the case of COC(=O)N1CC2CC23C(=O)c2ccccc2C=C13 (racemic) [compound 33, 2-(Methoxycarbonyl)-1,2,9,9a-tetrahydrocyclopropa[c]benzo[f]indol-8-one], the “k, solvolysis rate constant” value [3] is reported as 6.4e-06 s⁻¹.
With O=C1C2=NCC3CC23C(=O)c2ccccc21 (centres unmarked) [compound 35, 9,9a-1H-Dihydrocyclopropa[c]benzo[f]indol-3,8-dione] the “solvolysis reactivity relative to 31 or 33 (more reactive)” value ([3]; pH 3) was 5-6 × and the “k, solvolysis rate constant” value [3] was 3.8e-05 s⁻¹.
In the case of CC(C)(C)OC(=O)N1CC2CC23C=CC(=O)C=C13 (racemic) [compound 61], the “k, solvolysis rate constant” value [2] is listed as 0.0198 s⁻¹.
In the case of COc1ccc2[nH]c(C(=O)N3CC4CC45C(=O)c4ccccc4C=C35)cc2c1 (racemic) [compound 46, 2-[(5-Methoxyindol-2-yl)carbonyl]-1,2,9,9a-tetrahydrocyclopropa[c]benzo[f]indol-8-one], the “cytotoxic potency, 44 compared with 46” value (L1210) is reported as “equipotent”.
For Cc1c[nH]c2c1C13CC1CN(C(=O)OC(C)(C)C)C3=CC2=O (centres unmarked) [compound 55], the “k, solvolysis rate constant” value [2] is listed as 5.26e-06 s⁻¹.
For CC(C)(C)OC(=O)N1CC2CC23C1=CC(=O)c1ccccc13 (centres unmarked) [compound 58], the “k, solvolysis rate constant” value [2] is listed as 1.45e-06 s⁻¹.
In the case of COc1cc2cc(C(=O)N3CC(COS(C)(=O)=O)c4c(O)cccc43)[nH]c2c(OC)c1OC (centres unmarked) [compound 20], the “DNA alkylation efficiency, less efficient than (+)-duocarmycin SA” value ([1]; 24 h, 25° C., seco agent) is reported as 10 × and the IC50 (L1210; [5]) is reported as 6 nM.
CC(C)(C)OC(=O)N1CC(COS(C)(=O)=O)c2c(O)cccc21 (centres unmarked) [compound 19] showed an IC50 (L1210; [5]) of 10000 nM.
For CC(C)(C)OC(=O)N1CC2CC23C1=CC(=O)c1ccc(C#N)cc13 (racemic) [compound 60], the “k, solvolysis rate constant” value [2] is given as 9.9e-07 s⁻¹.
In the case of COc1ccc2c(c1)C13CC1CN(C(=O)OC(C)(C)C)C3=CC2=O (racemic) [compound 59], the “k, solvolysis rate constant” value [2] is given as 1.75e-06 s⁻¹.
NC(=O)N1CCc2c1ccc1[nH]c(C(=O)N3CC4CC45C(=O)c4ccccc4C=C35)cc21 (racemic) [compound 52, 2-[(3-Carbamoyl-1,2-dihydro-3H-pyrrolo[3,2-e]indol-7-yl)carbonyl]-2,9,9a-tetrahydrocyclopropa[c]benzo[f]indol-8-one] showed an IC50 (L1210; [4]) of 0.2 nM.
